Patent US8163728B2, “Pyrazoles” (Hoffmann-La Roche Inc., priority 2009, dated 2012)

These compounds were tested against T1, GABA A α5 (Homo sapiens, UniProt P18507+P31644) (assay: [3H]flumazenil competition binding, human GABA A α5β3γ2 receptors in HEK293 cell membranes). Settings: human receptor α5β3γ2 transiently transfected in HEK293; 0.5 nM [3H]flumazenil; 1 hour at 4° C.; means of two determinations; read-out: hKi GABA A α5.
T1 construct: expressed in transfected cells; host or cells: HEK293 cells, transiently transfected; membranes prepared from cell pellets
Description: The affinity of compounds at GABA A receptor subtypes was measured by competition for [3H]flumazenil (85 Ci/mmol; Roche) binding to HEK293 cells expressing rat (stably transfected) or human (transiently transfected) receptors of composition α1β3γ2, α2β3γ2, α3β3γ2 and α5β3γ2.
Cell pellets were suspended in Krebs-tris buffer (4.8 mM KCl, 1.2 mM CaCl2, 1.2 mM MgCl2, 120 mM NaCl, 15 mM Tris; pH 7.5; binding assay buffer), homogenized by polytron for ca. 20 sec on ice and centrifuged for 60 min at 4° C. (50000 g; Sorvall, rotor: SM24=20000 rpm). The cell pellets were re-suspended in Krebs-tris buffer and homogenized by polytron for ca. 15 sec on ice. Protein was measured (Bradford method, Bio-Rad) and aliquots of 1 mL were prepared and stored at −80° C.
Assays were incubated to equilibrium for 1 hour at 4° C. and harvested onto GF/C uni-filters (Packard) by filtration using a Packard harvester and washing with ice-cold wash buffer (50 mM Tris; pH 7.5). After drying, filter-retained radioactivity was detected by liquid scintillation counting. Ki values were calculated using Excel-Fit (Microsoft) and are the means of two determinations.

Structure (SMILES)	Ki
Cc1onc(-c2ccccc2)c1COc1cc(C(=O)NC2CCOCC2)n(C)n1 [Example 44, 2-Methyl-5-(5-methyl-3-phenyl-isoxazol-4-ylmethoxy)-2H-pyrazole-3-carboxylic acid (tetra-hydro-pyran-4-yl)-amide]	3.1 nM
Cn1nc(OCc2c(-c3ccc(Cl)cc3)noc2CO)cc1C(=O)NC1CCOCC1 [Example 101, 5-[3-(4-Chloro-phenyl)-5-hydroxymethyl-isoxazol-4-ylmethoxy]-2-methyl-2H-pyrazole-3-carboxylic acid (tetrahydro-pyran-4-yl)-amide]	0.9 nM
Cn1nc(OCc2c(-c3ccc(Cl)cc3)noc2CO)cc1C(=O)NCC(F)(F)F [Example 103, 5-[3-(4-Chloro-phenyl)-5-hydroxymethyl-isoxazol-4-ylmethoxy]-2-methyl-2H-pyrazole-3-carboxylic acid (2,2,2-trifluoro-ethyl)-amide]	5.7 nM
Cc1onc(-c2ccc(F)cc2)c1COc1cc(C(=O)N[C@H]2CCC[C@@H]2O)n(C)n1 [Example 73, (+5-[3-(4-Fluoro-phenyl)-5-methyl-isoxazol-4-ylmethoxy]-2-methyl-2H-pyrazole-3-carboxylic acid ((1R,2R)-2-hydroxy-cyclopentyl)-amideand/or 5-[3-(4-Fluoro-phenyl)-5-methyl-isoxazol-4-ylmethoxy]-2-methyl-2H-pyrazole-3-carboxylic acid ((18,28)-2-hydroxy-cyclopentyl)-amide]	9.4 nM
Cc1onc(-c2ccccc2)c1COc1cc(C(=O)NN(C)C)[nH]n1 [Example 5, 5-(5-Methyl-3-phenyl-isoxazol-4-ylmethoxy)-2H-pyrazole-3-carboxylic acid N′,N′-dimethyl-hydrazide]	14.6 nM
CC(C)NC(=O)c1cc(OCc2c(-c3ccc(F)cc3)noc2CO)nn1C [Example 92, 5-[3-(4-Fluoro-phenyl)-5-hydroxymethyl-isoxazol-4-ylmethoxy]-2-methyl-2H-pyrazole-3-carboxylic acid isopropylamide]	9.5 nM
Cn1nc(OCc2c(-c3ccc(Cl)cc3)noc2CO)cc1C(N)=O [Example 102, 5-[3-(4-Chloro-phenyl)-5-hydroxymethyl-isoxazol-4-ylmethoxy]-2-methyl-2H-pyrazole-3-carboxylic acid amide]	12.6 nM
Cn1nc(OCc2c(-c3ccc(Cl)cc3)noc2CO)cc1C(=O)NC1(C)COC1 [Example 108, 5-[3-(4-Chloro-phenyl)-5-hydroxymethyl-isoxazol-4-ylmethoxy]-2-methyl-2H-pyrazole-3-carboxylic acid (3-methyl-oxetan-3-yl)-amide]	3.1 nM
CCCCc1noc(C)c1COc1cc(C(=O)NC(C)C)n(C)n1 [Example 86, 5-(3-Butyl-5-methyl-isoxazol-4-ylmethoxy)-2-methyl-2H-pyrazole-3-carboxylic acid isopropylamide]	39.2 nM
CCCCc1noc(C)c1COc1cc(C(=O)NN2CCCC2)[nH]n1 [Example 40, 5-(3-Butyl-5-methyl-isoxazol-4-ylmethoxy)-2H-pyrazole-3-carboxylic acid pyrrolidin-1-ylamide]	21.5 nM
Cc1onc(-c2ccc(F)cc2)c1COc1cc(C(=O)N2CC(O)C2)n(C)n1 [Example 71, {5-[3-(4-Fluoro-phenyl)-5-methyl-isoxazol-4-ylmethoxy]-2-methyl-2H-pyrazol-3-yl}-(3-hydroxy-azetidin-1-yl)-methanone]	16.5 nM
Cc1onc(-c2ccc(F)cc2)c1COc1cc(C(=O)NC(C)C)n(C)n1 [Example 52, 5-[3-(4-Fluoro-phenyl)-5-methyl-isoxazol-4-ylmethoxy]-2-methyl-2H-pyrazole-3-carboxylic acid isopropylamide]	7.4 nM
Cc1onc(-c2ccc(F)cn2)c1COc1cc(C(=O)NCCO)n(C)n1 [Example 83, 5-[3-(5-Fluoro-pyridin-2-yl)-5-methyl-isoxazol-4-ylmethoxy]-2-methyl-2H-pyrazole-3-carboxylic acid (2-hydroxy-ethyl)-amide]	11 nM
Cc1onc(-c2ccc(F)cc2)c1COc1cc(C(=O)N2CC3(COC3)C2)n(C)n1 [Example 77, {5-[3-(4-Fluoro-phenyl)-5-methyl-isoxazol-4-ylmethoxy]-2-methyl-2H-pyrazol-3-yl}-(2-oxa-6-aza-spiro[3.3]hept-6-yl)-methanone]	45.8 nM
Cn1nc(OCc2c(-c3ccc(Cl)cc3)noc2CO)cc1C(=O)NC1CC1 [Example 105, 5-[3-(4-Chloro-phenyl)-5-hydroxymethyl-isoxazol-4-ylmethoxy]-2-methyl-2H-pyrazole-3-carboxylic acid cyclopropylamide]	5.4 nM

Further lines, results first:

Ki	Structure (SMILES)
29.3 nM	Cc1onc(-c2ccc(F)cc2)c1CNc1cc(C(=O)NCC(C)(C)O)n(C)n1 [Example 144, 5-{[3-(4-Fluoro-phenyl)-5-methyl-isoxazol-4-ylmethyl]-amino}-2-methyl-2H-pyrazole-3-carboxylic acid (2-hydroxy-2-methyl-propyl)-amide]
19.4 nM	Cc1onc(-c2ccccn2)c1CNc1cc(C(=O)NN2CCOCC2)n(C)n1 [Example 161, 1-Methyl-3-((5-methyl-3-(pyridin-2-yl)isoxazol-4-yl)methylamino)-N-morpholino-1H-pyrazole-5-carboxamide]
43.4 nM	Cc1onc(-c2ccc(F)cc2)c1CNc1cc(C(N)=O)[nH]n1 [Example 153, 5-{[3-(4-Fluoro-phenyl)-5-methyl-isoxazol-4-ylmethyl]-amino}-2H-pyrazole-3-carboxylic acid amide]
1.2 nM	Cc1onc(-c2ccc(F)cc2)c1/C=C/c1cc(C(=O)NCC(F)(F)F)n(C)n1 [Example 128, 5-{(E)-2-[3-(4-Fluoro-phenyl)-5-methyl-isoxazol-4-yl]vinyl}-2-methyl-2H-pyrazole-3-carboxylic acid (2,2,2-trifluoro-ethyl)-amide]
7.4 nM	Cc1onc(-c2ccc(F)cc2)c1/C=C/c1cc(C(=O)NC(C)(C)CO)n(C)n1 [Example 143, 5-{(E)-2-[3-(4-Fluoro-phenyl)-5-methyl-isoxazol-4-yl]vinyl}-2-methyl-2H-pyrazole-3-carboxylic acid (2-hydroxy-1,1-dimethyl-ethyl)-amide]
36.5 nM	Cc1onc(-c2ccc(F)cc2)c1/C=C/c1cc(C(=O)N2CCS(=O)(=O)CC2)[nH]n1 [Example 131, (1,1-Dioxo-1,6-thiomorpholin-4-yl)-(5-{(E)-2-[3-(4-fluoro-phenyl)-5-methyl-isoxazol-4-yl]-vinyl}-2H-pyrazol-3-yl)-methanone]
77.7 nM	Cc1onc(-c2ccc(F)cn2)c1CNc1cc(C(=O)N2CC3(COC3)C2)n(C)n1 [Example 168, (3-((3-(5-Fluoropyridin-2-yl)-5-methylisoxazol-4-yl)methylamino)-1-methyl-1H-pyrazol-5-yl)(2-oxa-6-azaspiro[3.3]heptan-6-yl)methanone]
1.4 nM	Cc1onc(-c2ccc(F)cc2)c1/C=C/c1cc(C(=O)N2CC3(COC3)C2)[nH]n1 [Example 137, (5-{(E)-2-[3-(4-Fluoro-phenyl)-5-methyl-isoxazol-4-yl]vinyl}-2H-pyrazol-3-yl)-(2-oxa-6-aza-spiro[3.3]hept-6-yl)-methanone]
50.6 nM	Cc1onc(-c2ccc(F)cc2)c1/C=C/c1cc(C(=O)N2CCOCC2)[nH]n1 [Example 132, (5-{(E)-2-[3-(4-Fluoro-phenyl)-5-methyl-isoxazol-4-yl]vinyl}-2H-pyrazol-3-yl)-morpholin-4-yl-methanone]
